Source: patent publication US20230103774A1, “USE OF KAURANE COMPOUNDS IN PREPARATION OF DRUG FOR PREVENTION AND TREATMENT OF SEPSIS AND MULTIPLE ORGAN DAMAGE” (KEY-PHARMA BIOMEDICAL INC., priority 2020, published 2023)
“Also recorded” adds a separate entry of the source.

Legend:
LPS-induced septic mice [1] = assay: spleen/body weight ratio after LPS; format: in vivo; conditions: even lower than that of the Control group
Method: The fur color, consciousness, physical activity, diet, etc. of the mice were observed, and the heart, liver, spleen, lung and kidney of the mice were weighed 6 hours after intraperitoneal injection of LPS.

[2] = test system: LPS-induced septic Balb/C mice; assay: mortality of LPS-induced septic Balb/C mice after intraperitoneal compound A; format: in vivo; conditions: for improved the survival rate of mice: P<0.01
Method: This example mainly observes the effect of intraperitoneal injection of different doses of Compound A on the mortality of LPS-septic Balb/C mice.
To observe the effect of intraperitoneal injection of different doses of compound A on the mortality of LPS-induced sepsis mice.
The mice were randomly divided into 6 groups: • (1) Control group: intraperitoneal injection of physiological saline (solvent) (0.1 ml/10 g) once a day for three consecutive days, 1 hour after intraperitoneal injection on the third day, intraperitoneal injection of physiological saline (0.2 ml/10 g); • (2) LPS group: intraperitoneal injection of saline (0.1 ml/10 g), 1 time/d for 3 consecutive days, 1 hour after intraperitoneal injection on the third day, intraperitoneal injection of LPS (20 mg/kg, 0.1 ml/10 g). • (3) Compound A (5 mg/kg)+LPS group: intraperitoneal injection of compound A (5 mg/kg, 0.1 ml/10 g), 1 time/d for 3 consecutive days, 1 hour after intraperitoneal injection on the third day, intraperitoneal injection LPS (20 mg/kg, 0.1 ml/10 g). • (4) Compound A (10 mg/kg)+LPS group: intraperitoneal injection of compound A (10 mg/kg, 0.1 ml/10 g), 1 time/d for 3 consecutive days, 1 hour after intraperitoneal injection on the third day, intraperitoneal injection LPS (20 mg/kg, 0.1 ml/10 g). • (5) Compound A (20 mg/kg)+LPS group: intraperitoneal injection of compound A (20 mg/kg, 0.1 ml/10 g), 1 time/d for 3 consecutive days, 1 hour after intraperitoneal injection on the third day, intraperitoneal injection LPS (20 mg/kg, 0.1 ml/10 g). • (6) Compound A (60 mg/kg)+LPS group: intraperitoneal injection of compound A (60 mg/kg, 0.1 ml/10 g), 1 time/d for 3 consecutive days, 1 hour after intraperitoneal injection on the third day, intraperitoneal injection LPS (20 mg/kg, 0.1 ml/10 g).
After intraperitoneal injection of LPS, the survival of mice in each group was observed every 12 h for six consecutive days.
Based on the previously reports, the dose of 5 mg/kg for adults is an acceptable and safe dose, and the maximum blood concentration reaches 20 μM, which is equivalent to 45 mg/kg in mice. Accordingly, 10 mg/kg STV-Na was employed for further studies.

[3] = test system: white blood cells, neutrophils and monocytes; assay: white blood cells, neutrophils and monocytes in LPS induced septic mice; format: in vivo; conditions: versus LPS group
TNF-α, IL-6 and IL-1β = assay: pro-inflammatory cytokine expression in plasma of septic mice; format: in vivo; conditions: 6 h after intraperitoneal injection of LPS; different doses
[4] = test system: LPS-induced lung injury mice; assay: lung function by whole body plethysmography (Penh, EF50, TV); format: in vivo
Method: The lung function of each group of mice was measured at 6 h. Mice were placed in a closed chamber of a whole body plethysmograph (BUXCO, USA), and the plethysmographic chamber was connected to a sensor. […] In this experiment, we used Buxco's pulmonary function testing system to measure and record the 50% tidal expiratory volume, tidal volume, and changes in airway responsiveness in each group of mice by whole body plethysmography to assess lung function. This method offers a real-time lung function of mice under non-invasive conditions. Penh is a pulmonary function parameter related to airway resistance and intrapleural pressure, and Penh is used as an index to evaluate airway response.

septic lung tissues = assay: acute lung injury caused by sepsis (lung tissue, blood oxygen saturation); format: in vivo; conditions: septic mice
LPS-induced septic mice [5] = assay: cardiac function of LPS-induced septic mice by echocardiography (Vevo2100); format: in vivo; conditions: for ejection fraction (EF) / fractional shortening (FS): 6 h after i.p. LPS, versus LPS group
From the text: Six hours after intraperitoneal injection of LPS, mice in each group were weighed and anesthetized, and the cardiac function of the mice was detected by Vevo2100 imaging system. The mice were put into the recumbent position and fixed on a constant temperature heating plate under heart rate of 400-500 times per minute. The limbs were fixed on the four metal poles with tape. The ultrasound probe was placed in the left thoracic region of the mouse, and the short axis of the parasternal left ventricle was obtained by 2D ultrasound. The left ventricular motion was recorded at the papillary muscle level by M-ultrasound, and heart rate (HR), left ventricular systolic diameter (LVID: FS), left ventricular diastolic diameter (LVID: d), left ventricular systolic diameter (LVID: FS), left ventricular diastolic diameter (LVID: Fd), and left ventricular diastolic […] thickness (LVPWF: FdF) were measured. Using Vevo2100 small animal ultrasound system software to process and analyze the acquired images. Determination of mouse plasma myocardial injury indexes (LDH and CK)
Ejection Fractions (EF), refers to the percentage of cardiac stroke volume in ventricular end-diastolic volume, which is an indicator of myocardial contractility. […] The left ventricular short-axis shortening rate (fractional shortening, FS) refers to the ratio of the inner diameter of the ventricle at the end systole to the inner diameter of the ventricular end diastole, and also reflects the systolic function of the heart (FS=(left ventricular end-diastolic diameter (LVDd)−Left ventricular end-systolic diameter (LVDs))/left ventricular end-diastolic diameter×100%).

[6] = test system: lactate dehydrogenase (LDH) and creatine kinase (CK) in plasma; assay: plasma myocardial injury indexes LDH and CK; format: in vivo; conditions: LPS-induced septic mice, versus LPS group, p<0.01
Method: Serum lactate dehydrogenase (LDH) and creatine kinase (CK) were determined according to the istructions provided by Nanjing Jiancheng Biotechnology Co., Ltd.

[7] = test system: macrophage M1 and M2 in cardiac tissue; assay: ROS and M1/M2 macrophages in heart of septic mice; format: in vivo
LPS-induced septic mice [8] = assay: renal function of LPS-induced septic mice (plasma BUN, Crea, histopathology); format: in vivo
From the text: The prepared plasma of each group was taken to determine the levels of urea nitrogen (BUN) and creatinine (Crea) in plasma by a microplate reader following the manufacture's instruction.

LPS-induced septic mice [9] = assay: liver function of LPS-induced septic mice (plasma ALT, AST, SOD, histopathology); format: in vivo
From the text: The prepared plasma of each group was taken to determine the levels of alanine aminotransferase (ALT), aspartate aminotransferase (AST) and superoxide dismutase (SOD) in plasma by a microplate reader according to the manufacture's instruction.

[10] = test system: Animals that survived sepsis; assay: fibrosis of affected organs after recovery from sepsis; format: in vivo
[11] = test system: primary peritoneal macrophages; assay: flow cytometry of M1/M2 primary peritoneal macrophages of LPS induced septic mice; format: in vivo; conditions: 6 hours after 20 mg/kg LPS i.p., versus LPS group
Method: This example illustrates the effect of compound A on macrophage polarization. • (1) Grouping of experimental animals: 6-8 week old Balb/c male mice were randomly divided into 4 groups after one week of adaptive feeding, 10 mice in each group, namely the Control group, the LPS group, the compound A group and the dexamethasone group. The LPS group, compound A group and dexamethasone group were given intraperitoneally injection of a 20 mg/kg of LPS. […]

mitochondria = assay: mitochondrial protection during sepsis; conditions: administration during sepsis
HIF-1α = HIF-1α expression after LPS and macrophage regulation
solubility = format: physicochemical; conditions: sodium salt versus compound A
[12] = dose of 5 mg/kg for adults; cited from earlier work
[13] = under certain conditions in vitro; cited from earlier work
[14] = 6 hours after LPS injection, versus LPS group, p<0.01
[15] = pretreated septic mice versus LPS group

For `C[C@@H]1C[C@H]2[C@@H]3CCC4=CC(=O)C=C[C@]4(C)[C@@]3(F)[C@@H](O)C[C@]2(C)[C@@]1(O)C(=O)CO` [dexamethasone], which spleen/body weight ratio (LPS-induced septic mice [1]) is on record?
The spleen/body weight ratio was “significantly reduced”.

Which survival of mice ([2]; 5 mg/kg i.p. 1 time/d for 3 days, then LPS 20 mg/kg i.p., no significant difference with the LPS group (p>0.05)) does the source give for `C[C@@]12CC[C@@H]3[C@@](CC[C@H]4[C@@]3(C)CCC[C@@]4(C)C(=O)O)(CC1=O)C2` [Compound A, (4α, 8β, 13 β)-13-METHYL-16-OXO-17-Norkauran-18-OIC acid] here?
Its survival of mice is “all mice in the 5 mg/kg compound A group died”.

What about the “improved the survival rate of mice” value ([2]; 10 mg/kg i.p. 1 time/d for 3 days, then LPS 20 mg/kg i.p.) of the same compound?
Its value is 52%.

What about the “improved the survival rate of mice” value ([2]; 20 mg/kg i.p. 1 time/d for 3 days, then LPS 20 mg/kg i.p.) of the same compound?
The value was 67%.

What about the “survival rate of mice” value ([2]; 10-20 mg/kg, large dose of LPS i.p., up to more than two-thirds surviving) of the same compound?
The value was “significantly improved”.

What about the “level of white blood cells, neutrophils and monocytes” value [3] of the same compound?
Its value is “significantly reduced”.

And the “TNF-α, IL-1β and IL-6 in plasma” value (TNF-α, IL-6 and IL-1β)?
The value was “dose-dependently decreased”.

And the “EF50 (expiratory flow at 50% tidal volume)” value [4, 14]?
The value was “significantly higher”.

And the “TV (tidal volume)” value [4, 14]?
The value was “significantly higher”.

And the “airway reactivity (Penh)” value ([4]; septic mice)?
Its value is “returned to normal”.

What about the blood oxygen saturation (septic lung tissues) of the same compound?
Its blood oxygen saturation is “significantly increased”.

And the “lung function / acute lung injury and failure caused by sepsis” value (septic lung tissues)?
The value was “significantly recovered”.

What about the lung inflammation (septic lung tissues) of the same compound?
Its lung inflammation is “significantly reduced”.

What about the lung tissue structure (septic lung tissues) of the same compound?
Its lung tissue structure is “basically normal”.

What about the “ejection fraction (EF)” value (LPS-induced septic mice [5]) of the same compound?
The value was “significantly improved”.

What about the “fractional shortening (FS)” value (LPS-induced septic mice [5]) of the same compound?
The value was “significantly higher”.

What about the “ejection fraction (EF)” value (LPS-induced septic mice [5]; listed as STV-Na) of the same compound?
Its value is “markedly increased”.

And the “fractional shortening (FS)” value (LPS-induced septic mice [5]; listed as STV-Na)?
The value was “markedly increased”.

What about the CO (LPS-induced septic mice [5]; [15]) of the same compound?
The CO was “markedly increased”.

What about the SV (LPS-induced septic mice [5]; [15]) of the same compound?
The SV was “markedly increased”.

And the “CK level in plasma” value [6]?
The value was “significantly decreased”.

And the “LDH level in plasma” value [6]?
Its value is “downward trend”.

What about the “LDH level in plasma” value ([6]; listed as STV-Na) of the same compound?
The value was “significantly decreased”.

And the “level of ROS in heart” value [7]?
Its value is “inhibited”.

And the “biomarkers of M1 and M2 macrophages and number of macrophages in cardiac tissue” value ([7]; M1: IL-1β, McP1, CD11c, M2: Ym1, CD206)?
The value was “significantly decreased”.

And the “creatinine (Crea) in plasma” value (LPS-induced septic mice [8]; LPS-induced septic mice)?
Its value is “significantly reduced”.

What about the “urea nitrogen (BUN) in plasma” value (LPS-induced septic mice [8]; LPS-induced septic mice) of the same compound?
The value was “significantly decreased”.

And the “urea nitrogen (BUN) in plasma” value (LPS-induced septic mice [8]; LPS-induced septic mice, listed as compound A)?
The value was “significantly reduced”.

And the “lesions in the glomerulus and renal tubules (histopathological staining)” value (LPS-induced septic mice [8]; septic animals)?
The value was “milder than those in the model group”.

And the “alanine aminotransferase (ALT) in plasma” value (LPS-induced septic mice [9]; LPS-induced septic mice)?
Its value is “significantly decreased”.

And the “aspartate aminotransferase (AST) in plasma” value (LPS-induced septic mice [9]; LPS-induced septic mice)?
The value was “significantly decreased”.

And the “superoxide dismutase (SOD) in plasma” value (LPS-induced septic mice [9]; LPS-induced septic mice)?
Its value is “significantly decreased”.

What about the “infiltration of inflammatory cells in liver (histopathological staining)” value (LPS-induced septic mice [9]; septic animals) of the same compound?
Its value is “reduced”.

And the “fibrosis and collagen deposition in the lungs, heart, liver, and kidney” value [10]?
Its value is “marked reduction”.

And the “M1 peritoneal macrophages (F4/80+CD11c+ CD206−)” value [11]?
Its value is “significantly inhibit; also recorded: significantly reduced”.

What about the “M2 peritoneal macrophages (F4/80+CD11c− CD206+)” value [11] of the same compound?
The value was “significantly inhibit; also recorded: significantly reduced”.

What about the “cytochrome C release” value (mitochondria) of the same compound?
The value was “reduce”.

What about the “inflammation cytokine TNF-α and IL-1β” value (mitochondria) of the same compound?
The value was “inhibiting”.

And the mitochondrial membrane potential (mitochondria)?
Its mitochondrial membrane potential is “increase”.

And the number of mitochondria (mitochondria)?
Its number of mitochondria is “increase”.

And the “production of superoxide such as NO in cells” value (mitochondria)?
Its value is “reduce”.

And the HIF-1α expression (HIF-1α; after LPS injection)?
The HIF-1α expression was “reduced”.

What about the “metabolic regulation effect on macrophages” value (HIF-1α; with DMOG, a competitive inhibitor of HIF-1α prolyl hydroxylase) of the same compound?
The value was “abolished”.

And the solubility (solubility)?
The solubility was “better solubility”.

And the maximum blood concentration [12]?
Its maximum blood concentration is 20 µM.

With `C=C1C[C@@]23CC[C@H]4[C@@](C)(CCC[C@@]4(C)C(=O)O)[C@@H]2CC[C@]1(O)C3` [Compound B, ENT13Hyrdoxyaur-16-EN-18-Oic acid] as the compound, how does the mutagenicity [13] read?
Its mutagenicity is “mutagenic”.
